Calls of active or inactive are those of the source. The calls are words filed in the database; no cut-off is given here.
How the values were obtained:
[1] = biological target: Stimulator of interferon genes protein (Homo sapiens) (UniProt Q86WV6); assay: Agonist activity at STING in human THP-1 cells assessed as decrease in STING monomer level at 5 to 40 uM by Western blotting analysis; type: cell-based; conditions: filed as agonist, dose 5-40 µM
B16-F10 = assay: Antitumor activity against mouse B16-F10 cells allografted in C57/BL6 mouse assessed as reduction in tumor growth at 300 ug, IT administered every 2 days; type: functional, cell-based; conditions: dose 300.0 µg
[2] = biological target: Stimulator of interferon genes protein (Homo sapiens) (UniProt Q86WV6); assay: Binding affinity to human STING CTD assessed as change in protein denaturation temperature at 10 to 50 uM by thermal shift assay; conditions: filed as agonist, dose 10-50 µM
[3] = biological target: Stimulator of interferon genes protein (Homo sapiens) (UniProt Q86WV6); assay: Agonist activity at STING in human THP-1 cells assessed as increase in ISG15 mRNA level at 20 uM measured for 4 hrs by qPCR analysis; type: cell-based; conditions: filed as agonist
[4] = Toxicity in C57/BL6 mouse xenografted with mouse MC38 cells assessed as organ damage at 300 ug, IT administered every 2 days by hematoxylin and eosin staining based histological analysis; type: cell-based, MC-38; conditions: in vivo, other, 48 h, dose 300 µg
[5] = biological target: T1, Stimulator of interferon genes protein (Mus musculus) (UniProt Q3TBT3); assay: Agonist activity at STING in MEF cells assessed as STING translocation to golgi apparatus by measuring increase in red fluorescence incubated for 1 hr by laser scanning confocal microscope analysis; type: cell-based; conditions: filed as agonist
T1 sequence (whole entry): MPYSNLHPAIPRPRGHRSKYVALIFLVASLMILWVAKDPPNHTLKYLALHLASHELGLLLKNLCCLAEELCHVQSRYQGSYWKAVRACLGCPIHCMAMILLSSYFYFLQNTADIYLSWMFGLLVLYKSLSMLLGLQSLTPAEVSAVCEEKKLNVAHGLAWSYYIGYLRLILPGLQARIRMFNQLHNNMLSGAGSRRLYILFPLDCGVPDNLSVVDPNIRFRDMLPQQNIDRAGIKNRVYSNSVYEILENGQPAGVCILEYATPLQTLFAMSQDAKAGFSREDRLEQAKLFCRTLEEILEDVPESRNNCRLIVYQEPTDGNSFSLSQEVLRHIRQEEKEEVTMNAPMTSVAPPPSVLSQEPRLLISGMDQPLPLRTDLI

THP-1 [6] = assay: Upregulation of IRF3 phosphorylation in STING-knockout human THP-1 cells at 20 uM measured for 4 hrs by Western blotting analysis; type: functional, cell-based
THP-1 [7] = assay: Upregulation of TBK1 phosphorylation in STING-knockout human THP-1 cells at 20 uM measured for 4 hrs by Western blotting analysis; type: functional, cell-based
MC-38 [8] = assay: Antitumor activity against mouse MC38 cells allografted in C57/BL6 mouse assessed as increase in CD45+ T cells in tumor tissue at 300 ug, IT administered every 2 days by flow cytometry analysis; type: functional, cell-based; conditions: dose 300.0 µg
[9] = biological target: Stimulator of interferon genes protein (Homo sapiens) (UniProt Q86WV6); assay: Binding affinity to human STING CTD assessed as decrease in protein stability by Western blotting analysis; conditions: filed as agonist
CT26 [10] = assay: Antitumor activity against mouse CT26 cells […] mouse assessed as augmentation of CD3+ T cells in spleen at 20 mg/kg, ip administered every 2 days (reference value: 13.9%); type: functional
[11] = biological target: Stimulator of interferon genes protein (Homo sapiens) (UniProt Q86WV6); assay: Agonist activity at STING in human THP-1 cells assessed as upregulation of type-1 interferon signaling pathway by gene ontology analysis; type: cell-based; conditions: filed as agonist
[12] = biological target: Stimulator of interferon genes protein (Homo sapiens) (UniProt Q86WV6); assay: Agonist activity at STING in human THP-1 cells assessed as upregulation of innate immune response related genes by gene ontology analysis; type: cell-based; conditions: filed as agonist
Human alphaherpesvirus 1 [13] = assay: Antiviral activity against HSV-1-GFP infected in mouse MC38 cells assessed as reduction in viral infection by fluorescent microscopy analysis; type: functional, organism-based
CT26 [14] = assay: Antitumor activity against mouse CT26 cells allografted in […] mouse assessed as augmentation of CD45+ cells in spleen at 5 mg/kg, ip administered every 2 days (reference value: 35.1%); type: functional
CT26 [15] = assay: Antitumor activity against mouse CT26 cells […] mouse assessed as augmentation of CD3+ T cells in spleen at 10 mg/kg, ip administered every 2 days (reference value: 13.9%); type: functional
MC-38 [16] = assay: Antitumor activity against mouse MC38 cells allografted in C57/BL6 mouse assessed as increase in CD8+ T cells in tumor tissue at 300 ug, IT administered every 2 days by flow cytometry analysis (reference value: 4.10%); type: functional; conditions: dose 300 µg
MC-38 [17] = assay: Induction of apoptosis in mouse MC38 cells allografted in C57/BL6 mouse a at 300 ug, IT administered every 2 days; type: functional, cell-based; conditions: dose 300.0 µg
CT26 [18] = assay: Antitumor activity against mouse CT26 cells […] mouse assessed as augmentation of CD3+ T cells in spleen at 5 mg/kg, ip administered every 2 days (reference value: 13.9%); type: functional
THP-1 [19] = assay: Upregulation of IL6 mRNA level in STING-knockout human THP-1 cells at 20 uM measured for 4 hrs by qPCR analysis; type: functional, cell-based
[20] = biological target: Stimulator of interferon genes protein (Homo sapiens) (UniProt Q86WV6); assay: Agonist activity at STING in human THP-1 cells assessed as increase in CXCL10 mRNA level at 20 uM measured for 4 hrs by qPCR analysis; type: cell-based; conditions: filed as agonist
[21] = biological target: Stimulator of interferon genes protein (Homo sapiens) (UniProt Q86WV6); assay: Agonist activity at STING in human THP-1 cells assessed as increase in TBK1 phosphorylation at 20 uM measured for 4 hrs by Western blotting analysis; type: cell-based; conditions: filed as agonist
[22] = Toxicity in C57/BL6 mouse allografted with mouse B16-F10 cells assessed as change in body weight at 300 ug, IT administered every 2 days; type: cell-based; conditions: in vivo, other, 48 h, dose 300 µg
[23] = Toxicity in […] mouse allografted with mouse CT26 cells assessed as change in body weight at 300 ug, IT administered every 2 days; type: cell-based; conditions: in vivo, other, 48 h, dose 300 µg
[24] = biological target: Stimulator of interferon genes protein (Homo sapiens) (UniProt Q86WV6); assay: Agonist activity at STING in human THP-1 cells assessed as increase in STING oligomerization by Western blotting analysis; type: cell-based; conditions: filed as agonist, dose 5-40 µM
[25] = biological target: Stimulator of interferon genes protein (Homo sapiens) (UniProt Q86WV6); assay: Agonist activity at STING in human THP-1 cells assessed as increase in LC3-II protein level incubated for 4 hrs by Western blotting analysis; type: cell-based; conditions: filed as agonist, dose 5-40 µM
CT26 [26] = assay: Antitumor activity against mouse CT26 cells […] mouse assessed as augmentation of CD45+ cells in spleen at 10 mg/kg, ip administered every 2 days (reference value: 35.1%); type: functional
MC-38 [27] = assay: Antitumor activity against mouse MC38 cells allografted in C57/BL6 mouse assessed as increase in CD45+ T cells in spleen at 300 ug, IT administered every 2 days by flow cytometry analysis; type: functional, cell-based; conditions: dose 300.0 µg
MC-38 [28] = assay: Antitumor activity against mouse MC38 cells allografted in C57/BL6 mouse assessed as increase in IL-6 level in serum at 300 ug, IT administered every 2 days by ELISA; type: functional, cell-based; conditions: dose 300.0 µg
[29] = biological target: Stimulator of interferon genes protein (Homo sapiens) (UniProt Q86WV6); assay: Agonist activity at STING in human THP-1 cells assessed as IRF3 phosphorylation at 20 uM measured for 4 hrs in presence of H-151 by Western blotting analysis; type: cell-based
Human alphaherpesvirus 1 [30] = assay: Antiviral activity against HSV-1-GFP infected in human THP-1 cells assessed as reduction in proportion of infected cells pre-infected […] for 24 hrs followed by compound addition and measured after 6 hrs by flow cytometry analysis; type: functional, organism-based; conditions: dose 10-30 µM

Stimulator of interferon genes protein (Homo sapiens), sequence (Q86WV6 whole entry): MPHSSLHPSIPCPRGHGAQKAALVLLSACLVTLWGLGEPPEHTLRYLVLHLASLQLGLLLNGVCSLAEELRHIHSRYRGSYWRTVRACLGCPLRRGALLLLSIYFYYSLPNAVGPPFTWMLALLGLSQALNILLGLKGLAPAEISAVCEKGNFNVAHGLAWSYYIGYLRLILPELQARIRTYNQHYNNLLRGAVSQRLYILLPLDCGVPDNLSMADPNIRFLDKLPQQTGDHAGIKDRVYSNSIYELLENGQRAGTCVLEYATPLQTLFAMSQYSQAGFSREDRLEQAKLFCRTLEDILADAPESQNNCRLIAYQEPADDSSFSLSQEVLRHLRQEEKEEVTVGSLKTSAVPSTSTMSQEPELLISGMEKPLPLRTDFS

SMILES: CC(NCCC(c1ccccc1)c1ccccc1)c1ccccc1 (stereo unspecified) [FENDILINE]
- Activity [1]: Active
- Activity (B16-F10): Active
- Activity [2]: Active
- Activity [3]: Active
- Activity [4]: Non-Toxic
- Activity [5]: Active
- Activity (THP-1 [6]): inactive
- Activity (THP-1 [7]): inactive
- Activity (MC-38 [8]): Active
- Activity [9]: Active
- Activity (CT26 [10]): 41.4%
- Activity [11]: Active
- Activity [12]: Active
- Activity (Human alphaherpesvirus 1 [13]): Active
- Activity (CT26 [14]): 42.5%
- Activity (CT26 [15]): 28.6%
- Activity (MC-38 [16]): 14.7%
- Activity (MC-38 [17]): inactive
- Activity (CT26 [18]): 20.3%
- Activity (THP-1 [19]): inactive
- Activity [20]: Active
- Activity [21]: Active
- Activity [22]: Non-Toxic
- Activity [23]: Non-Toxic
- Activity [24]: Dose-Dependent Effect
- Activity [25]: Dose-Dependent Effect
- Activity (CT26 [26]): 56.3%
- Activity (MC-38 [27]): Active
- Activity (MC-38 [28]): Active
- Activity [29]: inactive
- Activity (Human alphaherpesvirus 1 [30]): Dose-Dependent Effect

— ChEMBL document CHEMBL5518165, “M335, a novel small-molecule STING agonist activates the immune response and exerts antitumor effects” (Eur J Med Chem, 2024)
